# Measurements: US20160108414A1, “GROWTH-RELATED ENOX PROTEINS FROM PLANTS WITH YIELD ENHANCEMENT POTENTIAL, SEQUENCES AND METHODS” (Mor-NuCo Enterprises, Inc., priority 2013, published 2016)
# How the values were obtained:
# Assay type in all cases: biochemical
# [1] = test system: recombinant Arabidopsis ENOX1; experiment: NADH oxidase activity of IEF-purified recombinant Arabidopsis ENOX1; conditions: for NADH oxidase activity: average of 3 determinations ± SD, None = 2.7 ± 0.4; for Effect on ENOX1 activity eluted from the IEF gel: concentrations of Table 5
# Protocol: (§1) Cells were centrifuged at 5,000 g for 6 min. Pellets were then resuspended in 20 mM Tris-HCl, pH 8.0, containing 0.5 mM PMSF, 1 mM benzamidine and 1 mM 6-aminocaproic and lysed by three passages through a French pressure cell (SLM Aminco) at 20,000 psi. Expression of the recombinant Arabidopsis ENOX1 of about 14 kDa was confirmed by SDS-PAGE with silver staining. Transformed cells were stored at −80° C. in a standard glycerol stock solution. The Arabidopsis ENOX1 proteins were further purified on Criterion IEF gels (Bio-Rad, Hercules, Calif.). The IEF gel was cut into seven equal segments. The pH represented by each slice was based on IEF standards (Bio-Rad). The slices were soaked in 15 mM Tris-Mes buffer, pH 7, at 4° C. for overnight with shaking. The gel-free extracts were assayed for ENOX1 activity.
# (§2) Oxidation of NADH was determined spectrophotometrically from the disappearance of NADH measured at 340 nm in a reaction mixture containing 25 mM Tris-MES (pH 7.2), 100 μM GSH, 1 mM KCN to inhibit mitochondrial oxidase activity, 150 μM NADH and the enzyme at 37° C. with temperature control (±0.5° C.) and stirring. Prior to assay, 1 μM reduced glutathione was added to reduce the protein in the presence of substrate. After 10 min, 0.03% hydrogen peroxide was added to reoxidize the protein under renaturing conditions and in the presence of substrate to start the reaction. Activities were measured using paired Hitachi U3210 or paired SLM Aminco 2000 spectrophotometers both with continuous recording. Assays were run for 1 min and were repeated on the same sample at intervals of 1.5 min for the times indicated. An extinction coefficient of 6.22 cm^−1 mM^−1 was used to determine specific activity.
# IEF purified ENOX1 was concentrated to 0.7 mg/ml by using a Centricon concentrator (Millipore Corporation, Danvers, Mass.) fitted with a 10,000 nominal molecular weight limit ultracel YM membrane. Samples (50 μl) were combined with 1 μl of trifluoroacetic acid (TFA) in the presence or absence of 15 μl 10 mM bathocuproine. After 2 h of incubation at room temperature, the samples were dialyzed (Spectra/Pro Dialysis membrane, molecular weight cut-off 6-8,000, Spectrum Laboratories (Rancho Dominguez, Calif.) against 20 mM Tris-HCl, pH 8, at 4° C. overnight.
# recombinant ABP-20 = biological target: T1, recombinant ABP-20 (Prunus persica, UniProt O04011, DUP151-151); experiment: NADH oxidase activity of IEF-purified recombinant ABP-20 (dNOX); conditions: for NADH oxidase activity: average of 3 determinations ± SD, None = 0.1 ± 0.08
# T1 construct: made in house; host or cells: E. coli BL21 (DE3), pET11b
# Protocol: as §2
# as §1, with “recombinant ABP-20” for “recombinant Arabidopsis ENOX1”, “about 20” for “about 14”, “The recombinant” for “The Arabidopsis ENOX1”, “for ENOX activities as follows: […]” for “for ENOX1 activity.”
# dNOX (ABP-20) [2] = experiment: NADH oxidation of dNOX (ABP-20) site-directed mutants
# Protocol: as §2
# (§3) Amino acids indicated were replaced by alanines by site-directed mutagenesis according to Braman et al. (Braman, J., Papworth, C. and Greener, A. 1996. Methods Mol. Biol. 57:32-44). Numbered amino acids and nucleotide positions of splice variant products refer to numbers assigned to amino acids of the full length transcript
# dNOX (ABP-20) [3] = experiment: DTDP (protein disulfide-thiol) interchange of dNOX (ABP-20) site-directed mutants
# Protocol: Protein disulfide-thiol interchange was determined spectrophotometrically from the increase in absorbance at 340 nm resulting from the cleavage of dithiodipyridine (DTDP (Morré, D. J., Gomez-Rey, M. L., Schramke, C., Em, O., Lawler, J., Hobeck, J. and Morré, D. M. 1999. Mol. Cell. Bochem. 200: 7-13). DTDP cleavage was buffered (50 mM Tris-MES, pH 7). The assay was preincubated (1 h at room temperature) with 0.5 μmoles 2,2′-dithiodipyridine (DTDP) in 5 μl of DMSO to react with endogenous reductants present with the plasma membranes. After 10 min, a further […] DTDP were added in 35 μl DMSO to start the reaction. The final reaction volume was […]. The reaction was monitored from the increase in absorbance at 340 nm. Specific activities were calculated using a milimolar absorption coefficient of 6.21.
# as §3
molecule,measurement,setting,value
"[2H]O[2H] [heavy water, Deuterium Oxide]",Period length of ENOX1 activity,"[1]; assayed in heavy water, normal period 24 min",about 30 min
"O=C(O)COc1cccc(Cl)c1Cl [2,3-dichlorophenoxyacetic acid]",Effect on activity of recombinant ABP-20,recombinant ABP-20,without effect
same,NADH oxidase activity,recombinant ABP-20; addition 1 μM,0.15 ± 0.01 µmol/min/mg
Trans-platinum,Effect on activity of recombinant ABP-20,recombinant ABP-20,without effect
same,NADH oxidase activity,recombinant ABP-20; addition 1 μM,0.7 ± 0.1 µmol/min/mg
COc1ccc2[nH]cc(CCNC(C)=O)c2c1 [melatonin],New maximum after melatonin addition (phasing of 24 min period),[1]; 1 μM melatonin,24 min
OCCc1ccc(O)cc1 [Tyrosol],NADH oxidase activity,[1]; inhibitor 10 μM,3.4 ± 0.2 µmol/min/mg
CC[C@@H](C)C(=O)O[C@H]1C(=O)O[C@@H]2C[C@H]3C(C)=CC(=O)[C@@H](O)[C@]3(C)[C@H]3[C@@H](O)[C@H](O)[C@]4(C)OC[C@]32[C@@H]14 [Simalikalactone D],NADH oxidase activity,[1]; addition 1 μM,0.9 ± 0.1 µmol/min/mg
same,Effect on ENOX1 activity eluted from the IEF gel,[1],inhibited
same,Effect on activity of recombinant ABP-20,recombinant ABP-20,without effect
same,NADH oxidase activity,recombinant ABP-20; addition 1 μM,0.65 ± 0.07 µmol/min/mg
O=S(=O)(O)c1cc[c]([Hg][Cl])cc1 [PCMS],Effect on activity of recombinant ABP-20,recombinant ABP-20,inhibited
same,NADH oxidase activity,recombinant ABP-20; addition 100 μM,0.3 ± 0.2 µmol/min/mg
COc1cc(CNC(=O)CCCC/C=C/C(C)C)ccc1O [Capsaicin],NADH oxidase activity,[1]; addition 1 μM,3.7 ± 0.1 µmol/min/mg
same,Effect on ENOX1 activity eluted from the IEF gel,[1],no inhibition was observed
O=C(O)c1cc(O)c(O)c(O)c1 [Gallic acid],NADH oxidase activity,[1]; inhibitor 100 μM,3.0 ± 0.5 µmol/min/mg
O=C(O[C@@H]1Cc2c(O)cc(O)cc2O[C@@H]1c1cc(O)c(O)c(O)c1)c1cc(O)c(O)c(O)c1 [EGCg],Effect on ENOX1 activity eluted from the IEF gel,[1],no inhibition was observed
same,NADH oxidase activity,[1]; inhibitor 500 μM,3.9 ± 0.05 µmol/min/mg
O=C(O)Cc1c[nH]c2ccccc12 [Indole-3-acetic acid],NADH oxidase activity,recombinant ABP-20; addition 1 μM,0.8 ± 0.05 µmol/min/mg
same,optimum concentration for activation,recombinant ABP-20; higher concentration less effective,about 1 μM
"CC(=O)Nc1cc(NS(=O)(=O)C(F)(F)F)c(C)cc1C [Mefluidide, N-[2,4-Dimethyl-5-[[(trifluoromethyl)sulfonyl]amino]phenyl] acetamide]",Effect on ENOX1 activity eluted from the IEF gel,[1],inhibited
same,NADH oxidase activity,[1]; inhibitor 100 μM,1.8 ± 0.15 µmol/min/mg
COc1cccc2c1C(=O)c1c(O)c3c(c(O)c1C2=O)C[C@@](O)(C(=O)CO)C[C@@H]3O[C@H]1C[C@H](N)[C@H](O)[C@H](C)O1 [Doxorubicin],Effect on activity of recombinant ABP-20,recombinant ABP-20,inhibited the activity
same,NADH oxidase activity,recombinant ABP-20; addition 1 μM,0.2 ± 0.05 µmol/min/mg
Cc1cc(-c2ccccc2)c2ccc3c(-c4ccccc4)cc(C)nc3c2n1 [bathocuproine],"NADH oxidase activity, 24 min period","[1]; assayed with TFA and bathocuproine, FIG. 12",much reduced
same,dNOX activity after unfolding,"recombinant ABP-20; trifluoroacetic acid plus bathocuproine, FIG. 30B",activity was lost
CC1=CC(=O)[C@@H](O)[C@]2(C)[C@H]3[C@@]4(O)OC[C@]35[C@H]([C@@H](C)[C@H]4O)[C@@H](O)C(=O)O[C@@H]5C[C@@H]12 [Glaucarubolone],Effect on activity of recombinant ABP-20,recombinant ABP-20,inhibited the activity
same,NADH oxidase activity,recombinant ABP-20; addition 1 μM,0.2 ± 0.06 µmol/min/mg
CCS(=O)(=O)c1nc2ccccn2c1S(=O)(=O)NC(=O)Nc1nc(OC)cc(OC)n1 [Sulfonsulfuron],Effect on ENOX1 activity eluted from the IEF gel,[1],inhibited
same,NADH oxidase activity,[1]; inhibitor 100 μM,1.2 ± 0.5 µmol/min/mg
O=C(O)c1cc[c]([Hg][Cl])cc1 [PCMB],Effect on activity of recombinant ABP-20,recombinant ABP-20,inhibited
same,NADH oxidase activity,recombinant ABP-20; addition 100 μM,0.1 ± 0.05 µmol/min/mg
N.N.[Cl][Pt][Cl] [Cis-platinum],Effect on ENOX1 activity eluted from the IEF gel,[1],no inhibition was observed
same,NADH oxidase activity,[1]; inhibitor 100 μM,3.5 ± 0.002 µmol/min/mg
same,Effect on activity of recombinant ABP-20,recombinant ABP-20,inhibited the activity
same,NADH oxidase activity,recombinant ABP-20; addition 1 μM,0.2 ± 0.05 µmol/min/mg
"G59A: ABP-20 with G59 replaced by alanine (adenine nucleotide binding motif) (protein, UniProt O04011 24-214, looked up, variant G59A) Auxin-binding protein ABP20: AVQDFCVADLAAPEGPAGFSCKKPASVKVNDFVFSALGIAGNTSNIIKAAVTPAFVAQFPGVNGLGISIARLDLAVGGVVPFHTHPGASEVLIVAQGTICAGFVASDNTPYLQTLEKGDIMVFPQGLLHFQVNGGEAPALAFASFGSASPGLQILDFALFKNDLPTEVIAQTTFLDAAQIKKLKGVLGGTN",Effect of replacement on NADH oxidation,dNOX (ABP-20) [2],largely eliminated NADH oxidation
same,NADH Oxidation,dNOX (ABP-20) [2],0.06 ± 0.02 μmoles/min/mg protein
same,DTDP Interchange,dNOX (ABP-20) [3],0.07 ± 0.02 μmoles/min/mg protein
same,Effect of replacement on disulfide-thiol interchange,dNOX (ABP-20) [3],without effect
"H152A: ABP-20 putative copper site replacement (protein, UniProt O04011 24-214, looked up, variant H152A) Auxin-binding protein ABP20: AVQDFCVADLAAPEGPAGFSCKKPASVKVNDFVFSGLGIAGNTSNIIKAAVTPAFVAQFPGVNGLGISIARLDLAVGGVVPFHTHPGASEVLIVAQGTICAGFVASDNTPYLQTLEKGDIMVFPQGLLAFQVNGGEAPALAFASFGSASPGLQILDFALFKNDLPTEVIAQTTFLDAAQIKKLKGVLGGTN",Effect of replacement on NADH oxidation,dNOX (ABP-20) [2],near background
same,NADH Oxidation,dNOX (ABP-20) [2],0.03 ± 0.01 μmoles/min/mg protein
same,DTDP Interchange,dNOX (ABP-20) [3],0.02 ± 0.01 μmoles/min/mg protein
same,Effect of replacement on disulfide-thiol interchange,dNOX (ABP-20) [3],near background
"H106A: ABP-20 putative copper site replacement (protein, UniProt O04011 24-214, looked up, variant H106A) Auxin-binding protein ABP20: AVQDFCVADLAAPEGPAGFSCKKPASVKVNDFVFSGLGIAGNTSNIIKAAVTPAFVAQFPGVNGLGISIARLDLAVGGVVPFATHPGASEVLIVAQGTICAGFVASDNTPYLQTLEKGDIMVFPQGLLHFQVNGGEAPALAFASFGSASPGLQILDFALFKNDLPTEVIAQTTFLDAAQIKKLKGVLGGTN",Effect of replacement on NADH oxidation,dNOX (ABP-20) [2],near background
same,NADH Oxidation,dNOX (ABP-20) [2],0.04 ± 0.01 μmoles/min/mg protein
same,DTDP Interchange,dNOX (ABP-20) [3],0.02 ± 0.01 μmoles/min/mg protein
same,Effect of replacement on disulfide-thiol interchange,dNOX (ABP-20) [3],near background
"None (Wild Type): recombinant auxin-activated ENOX protein ABP-20 (Prunus persica), SEQ ID NO: 8, unmodified (protein, listed as Prunus persica, DISULFID (29)..(44); BINDING (59)..(64); BINDING (106)..(108); BINDING (113)..(113); BINDING (150)..(152)) MPQATMIFPILFTFFLLLSSSNAAVQDFCVADLAAPEGPAGFSCKKPASVKVNDFVFSGLGIAGNTSNIIKAAVTPAFVAQFPGVNGLGISIARLDLAVGGVVPFHTHPGASEVLIVAQGTICAGFVASDNTPYLQTLEKGDIMVFPQGLLLHFQVNGGEAPALAFASFGSASPGLQILDFALFKNDLPTEVIAQTTFLDAAQIKKLKGVLGGTN",NADH Oxidation,dNOX (ABP-20) [2],0.8 ± 0.1 μmoles/min/mg protein
same,DTDP Interchange,dNOX (ABP-20) [3],0.9 ± 0.05 μmoles/min/mg protein
